Measured values taken from PMC8307506, “Identification of Dihydromyricetin and Metabolites in Serum and Brain Associated with Acute Anti-Ethanol Intoxicating Effects in Mice” (International Journal of Molecular Sciences, 2021).

Assays:
[1] = test system: C57BL/6J mice; test: Ethanol-induced loss of righting reflex (LORR); format: in vivo
Procedure: Eight-week-old male and female C57BL/6J mice (Jackson’s Laboratories, Bar Harbor, ME, USA) were housed 4 mice to a cage (separated by sex) and maintained on 12-h light, 12-h dark cycles (lights on at 0700 h) in the animal facility at the Department of Animal Sciences, Rutgers University. Following 1-week acclimation, animals were given ad libitum access to water and a polyphenol-free diet (PFD; 3.82 kcal/g, 10% fat, 20% protein, 70% carbohydrate; D12450H; Research Diets, Inc., New Brunswick, NJ, USA) for at least 10 days. For PK studies, after an overnight fast, mice were administered 50 mg/kg DHM (dissolved in 0.9% saline with 10% DMSO) by either IP injection or oral gavage. […] Duration of LORR was determined by ability to return upright 3 times within 30 s. To determine whether ethanol-induced tolerance developed, one week (Week 1; Baseline) prior to the 6-week repeated DHM dosing study all mice were oral dose with ethanol (5 g/kg) without any IP injection and LORR was measured. […]
Pharmacokinetic parameters were calculated using noncompartmental analysis. Elimination half-life (T1/2) was calculated with R software from the linear regression of the terminal phase of the log serum concentration-time curve. The AUC0→24 was calculated with OriginLab software by trapezoidal analysis of the serum concentration-time plot. Cmax and Tmax were determined directly from observed data. Data are expressed as mean ± SEM. Statistical significance between AUC0→24 among test groups was calculated with an independent t-test (GraphPad software, San Diego, CA, USA). Time to LORR was analyzed by repeated measured ANOVA. Tolerance was determined by mean split in LORR response and confirmed with paired t-test (Week 1 vs. Week 8). Statistical significance of serum concentrations for individual time points was calculated using a two-way analysis of variance (ANOVA) analysis. […] Statistical significance of electrophysiology results compound GABAergic modulation was determined using a paired t-test (Vehicle control vs. Compound, GraphPad software, San Diego CA, USA). p < 0.05 was considered significant.

[2] = set-up: method as in PMID 29969512; conditions: cited from earlier work
[3] = molecular target: T1, α5β3γ2 GABAA receptors (Homo sapiens, UniProt P18507+P28472+P31644); test: Two-electrode voltage clamp electrophysiology in Xenopus oocytes in the presence of GABA; format: cell-based; conditions: compound 10 µM, GABA 10 µM
T1 construct: expressed in transfected cells; host or cells: Xenopus oocytes (injected with cDNA)
T1 sequence (P31644 32-462): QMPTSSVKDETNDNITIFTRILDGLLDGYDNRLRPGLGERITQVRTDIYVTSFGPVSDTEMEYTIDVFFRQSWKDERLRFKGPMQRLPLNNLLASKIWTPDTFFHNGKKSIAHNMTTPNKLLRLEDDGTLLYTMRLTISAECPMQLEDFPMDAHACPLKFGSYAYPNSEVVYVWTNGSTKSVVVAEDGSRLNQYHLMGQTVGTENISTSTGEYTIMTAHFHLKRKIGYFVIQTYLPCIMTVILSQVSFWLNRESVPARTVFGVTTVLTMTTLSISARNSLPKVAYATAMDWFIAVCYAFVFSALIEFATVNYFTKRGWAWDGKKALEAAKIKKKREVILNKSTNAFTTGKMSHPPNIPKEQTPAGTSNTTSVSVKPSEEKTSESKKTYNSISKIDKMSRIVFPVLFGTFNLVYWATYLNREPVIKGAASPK
T1 sequence (P28472 26-473): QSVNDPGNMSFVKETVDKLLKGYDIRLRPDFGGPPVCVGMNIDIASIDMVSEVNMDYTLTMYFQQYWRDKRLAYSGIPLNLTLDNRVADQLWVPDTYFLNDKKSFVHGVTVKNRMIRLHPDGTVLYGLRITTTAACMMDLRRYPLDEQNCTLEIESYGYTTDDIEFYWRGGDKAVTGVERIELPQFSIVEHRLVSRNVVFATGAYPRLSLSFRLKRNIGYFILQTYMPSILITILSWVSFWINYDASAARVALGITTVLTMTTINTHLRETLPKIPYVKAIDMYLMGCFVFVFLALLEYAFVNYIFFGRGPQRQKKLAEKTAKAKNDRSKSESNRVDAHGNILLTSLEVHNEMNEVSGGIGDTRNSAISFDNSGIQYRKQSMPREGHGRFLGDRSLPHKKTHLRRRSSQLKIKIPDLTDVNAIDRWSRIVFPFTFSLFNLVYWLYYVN
T1 sequence (P18507 40-475): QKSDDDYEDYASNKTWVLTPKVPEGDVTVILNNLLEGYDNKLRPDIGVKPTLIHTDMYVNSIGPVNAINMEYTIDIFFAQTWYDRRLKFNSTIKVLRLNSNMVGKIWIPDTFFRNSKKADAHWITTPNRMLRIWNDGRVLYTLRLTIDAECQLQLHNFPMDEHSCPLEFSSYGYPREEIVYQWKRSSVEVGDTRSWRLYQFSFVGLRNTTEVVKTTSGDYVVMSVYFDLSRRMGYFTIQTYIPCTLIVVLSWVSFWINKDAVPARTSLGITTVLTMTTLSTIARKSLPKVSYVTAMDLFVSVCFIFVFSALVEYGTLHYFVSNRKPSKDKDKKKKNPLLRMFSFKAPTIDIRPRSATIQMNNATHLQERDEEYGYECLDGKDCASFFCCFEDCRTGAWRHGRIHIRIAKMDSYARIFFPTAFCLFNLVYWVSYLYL
Procedure: Xenopus oocytes were stored in incubation media (pH 7.5), consisting of ND96 supplemented with 2 mM sodium pyruvate, […] gentamycin, and 10 mL heat inactivated HyClone horse serum. Stage 4 to 5 oocytes were injected with 40 nL of cDNA coding for α5, β3, and γ2 subunits in a ratio of 1:1:10, utilizing a Drummond Nanoject III. Injected oocytes were stored at 18 °C and used in electrophysiology studies within 2–7 days of injection.
Whole cell two-electrode voltage clamp (TEVC) recording were conducted on oocytes in the presence of GABA, according to previously reported methods. Oocytes were voltage clamped at a membrane potential of −70 mV. The oocyte recording chamber was continuously perfused with modified bath solution (MBS) with select compound (10 µM) and GABA (10 µM), with a final concentration of 1% DMSO [22, 44]. […] Oocytes were perfused at a rate of 3 mL/min. Electrophysiology recordings were conducted in triplicate compound for each compound. The change of GABAAR activity was determined by comparison of GABAAR potentiation to the EC20 with control saline in the presence of GABA.
Pharmacokinetic parameters were calculated using noncompartmental analysis. Elimination half-life (T1/2) was calculated with R software from the linear regression of the terminal phase of the log serum concentration-time curve. The AUC0→24 was calculated with OriginLab software by trapezoidal analysis of the serum concentration-time plot. Cmax and Tmax were determined directly from observed data. Data are expressed as mean ± SEM. Statistical significance between AUC0→24 among test groups was calculated with an independent t-test (GraphPad software, San Diego, CA, USA). Time to LORR was analyzed by repeated measured ANOVA. Tolerance was determined by mean split in LORR response and confirmed with paired t-test (Week 1 vs. Week 8). Statistical significance of serum concentrations for individual time points was calculated using a two-way analysis of variance (ANOVA) analysis. Post hoc Bonferroni tests were performed when justified. Statistical significance of electrophysiology results compound GABAergic modulation was determined using a paired t-test (Vehicle control vs. Compound, GraphPad software, San Diego CA, USA). p < 0.05 was considered significant.

[4] = set-up: method as in PMID 28114854; conditions: cited from earlier work
[5] = set-up: method as in PMID 28534405; conditions: Sprague Dawley rats, 100 mg/kg PO; cited from earlier work
[6] = test system: P-glycoprotein (Pgp) efflux transporters; set-up: method as in PMID 33810134, PMID 25985195; conditions: cited from earlier work

GABAAR potentiation [3]: +43.2%
GABAAR potentiation ([3]; mean ± SEM): +43.2 ± 5.6
Structure (SMILES): O=C1c2c(O)cc(O)cc2O[C@H](c2cc(O)c(O)c(O)c2)[C@H]1O [DHM, Dihydromyricetin]
ethanol-induced loss of righting reflex ([1]; C57BL/6J mice, DHM 50 mg/kg IP 0 or 15 min prior to ethanol PO 5 g/kg): significantly reduced
LORR compared with vehicle treated mice ([1]; female mice, DHM 50 mg/kg IP at time 0 and 45 min before oral ethanol 5 g/kg, p < 0.05): reducing LORR
LORR ([1]; responsive mice (5 males/3 females), DHM 50 mg/kg IP at time 0 and 15 min prior to ethanol PO, p < 0.05): demonstrated a reduction in LORR
cellular permeability [2]: 1.84e-06 cm/s
stability in acidic environments ([4]; acidic environments, similar to upper GI tract): stable
stability in solutions with pH > 6 ([4]; pH > 6): unstable
time DHM detected in brain tissue post administration [5]: up to 12 h
Pgp interaction [6]: Pgp substate and inhibitor
